Like-named read-outs stand apart in the source and are kept apart here.
Key:
[1] = test system: pDNA-PK induction in FaDU tumour spheroids; experiment: Multicellular tumour spheroid + radiation, pDNA-PK (ser2056) inhibition, immunohistochemical endpoint, FaDU; assay type: cell-based; conditions: Homo sapiens, 20 Gy
Protocol: Multicellular tumour spheroids determination of compound inhibition of pDNA-PK induction following radiation. Tumour spheroids were grown to approximately 0.5 mm in diameter and irradiated with 20 Gy in combination with inhibitor test compounds to determine their potency. Inhibitor concentration for 50% reduction in pDNA-PK induction (IC50) was determined via immunohistochemical staining in spheroid cryosections taken 2 hours following radiation. For cell survival endpoint 8 Gy radiation was used and 3 hours following radiation spheroids were dissociated, counted and plated for colony forming endpoint.
Spheroid+radiation pDNA-PK. Radiation: 20 Gy. Drug: serial dilution 5 or 10 μM down to 3.5 nM (11 wells). Spheroids: 3-6 spheroids per well (300-500 μm diameter). 20% 02 and 5% CO2. 96 well plate format. Endpoint: fluorescent immunostain pDNA-PK ser2056 and image on microscope. Analysis: determine EC50 concentrations that decreases pDNA-PK induction by 50% after irradiation.
Multicellular tumour spheroids were used to determine potency of test compounds in a 3D tissue environment using inhibition of pDNA-PK induction following radiation or cell survival as the endpoint. For the pDNA-PK endpoint HCT116 or FaDU tumour spheroids were grown to approximately 0.5 mm in diameter and irradiated with 20 Gy in combination with inhibitor test compounds to determine their potency. Experiments were carried out in 96 well plates containing 0.7 mls of MEM media containing 10% FBS and 10 mM glucose under 20% O2 & 5% CO2 at 37° C. Following dilution of compounds 1:1000 from DMSO stocks, compounds were serially diluted from 10 μM down to 3.5 nM and 5-10 spheroids added. 96 well plates were constantly stirred to avoid spheroids settling during the course of the experiment. The inhibitor concentration for 50% reduction in pDNA-PK induction (EC50) was determined via immunohistochemical staining in spheroid cryosections taken 2 hours following radiation using anti-pDNA-PK (ser 2056) and fixed immediately in formalin following sectioning. For cell survival endpoint 8 Gy radiation was used and, 3 hours following radiation, spheroids were dissociated, counted and plated for colony forming endpoint. Data presented in the table compound potency as EC50 [μM].

DNA-PK = biological target: T1, DNA-PK (Homo sapiens, UniProt P78527); experiment: DNA-PK Assay for Biochemical Enzymatic Inhibition (ADP Glo Kinase assay); conditions: DNA-PK enzyme
T1 construct: purchased Invitrogen PR9107A
In short: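 Human DNA-PK (25 ng) preincubated 15 min with compounds (ten three-fold dilutions) in HEPES pH 7.5, MgCl2, KCl, calf thymus DNA buffer, then substrate 434.4 μM and ATP 64.4 μM (final) for 60 min at room temperature. ADP-Glo luminescence; percent inhibition fitted by four-parameter regression for IC50.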

[2] = test system: pDNA-PK induction in HCT116 tumour spheroids; experiment: Multicellular tumour spheroid + radiation, pDNA-PK (ser2056) inhibition, immunohistochemical endpoint, HCT116; assay type: cell-based; conditions: Homo sapiens, 20 Gy, 20% O2
In short: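 HCT116 spheroids (~0.5 mm) in MEM/10% FBS, 20% O2, 37° C., pre-incubated 1 h with compound (10 or 5 μM down to 3.5 nM), irradiated 20 Gy, then 2 h further with compound. Cryosections immunostained for pDNA-PK ser2056; EC50 is concentration halving radiation-induced pDNA-PK.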

[3] = biological target: T2, DNA-PK phosphorylation at Serine 2056 (Homo sapiens, UniProt P78527); experiment: Cellular Assay for Inhibition of DNA-PK Phosphorylation at Serine 2056 in FaDu cells (sandwich ELISA, neocarzinostatin); assay type: cell-based; conditions: pSer2056 DNA-PK
T2 construct: FaDu cells were purchased from ATCC; host or cells: FaDu
In short: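 pSer2056 and total DNA-PK were measured by sandwich ELISA in BCA-normalised FaDu lysates. Cells had 1 h compound exposure (0.3% DMSO), then 2 h with 1 μg/mL final neocarzinostatin. IC50 was fitted (variable slope) to % inhibition scaled against NCS-stimulated and DMSO-only controls.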

[4] = Microsomal Stability Assay, mouse liver microsomes; assay type: in vitro ADME; conditions: for microsomal CLint at 0.1 uM: male, CD-1, pH 7.4
Protocol: (§1) Samples were then mixed and centrifuged. Supernatants were used for HPLC-MS/MS analysis. […] Peak areas corresponding to the test compound were recorded.

FaDu tumour xenograft = experiment: Tumour Growth Delay, FaDu tumour xenograft-bearing animals, compound ± radiation (TGD-ER); assay type: in vivo; conditions: PO
Protocol: FaDu tumour xenograft-bearing animals were monitored for tumour growth and once average tumour size reached approximately 100-250 mm3, animals were assigned to treatment cohorts using stratified randomization. […]
For BID dosing regimens, at 8 h following the first injection, animals were again administered with test compound at the same dose as their previous administration. Animals were weighed and had tumours measured using calipers three times weekly until the endpoint of maximum tumour volume, 1000 mm3, was reached and animals were euthanized. Tumour volumes were calculated according to the equation L×W^2/2 with the length (mm) being the longer axis of the tumour; in the case that no tumour was palpable, tumour volumes were recorded as 0 mm^3.
Data were calculated as tumour growth normalized to day 0 measurements, with time to tumour doubling determined. Average time to tumour doubling for each group was used to determine a Tumour Growth Delay Enhancement Ratio (TGD-ER): the time to doubling for treatment groups were divided by the time to doubling for irradiation-alone groups to determine group-specific TGD-ER values, and these were assigned scores based on defined response ranges: values>2.5=A, 1-2.5=B, <1=C.

[5] = test system: pH2AX induction in HCT116 ATM-/- multicellular tumour spheroids; experiment: Prodrug Radiation Sensitization in Multicellular Tumour Spheroids, inhibition of pH2AX induction following radiation; assay type: cell-based; conditions: Homo sapiens, HCT-116, 20 Gy
In short: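 Endpoint: pH2AX (ser 139) or pDNA-PK (ser 2056) in cryosections fixed 1 or 2 h after 20 Gy, comparing oxygenated outer with hypoxic inner layers. Spheroids of ~0.5 mm (HCT116, FaDu; ATM-deficient cells used) held at 20% or 5% O2, 37 °C, stirred. Prodrug range 3.5 nM–10 μM.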

[6] = Microsomal Stability Assay, human liver microsomes; assay type: in vitro ADME; conditions: human liver microsomes, Example 11
Protocol: as §1

FaDu cell line = experiment: Prodrug Activation in Hypoxic Stirred Tumour Cell Suspensions; conditions: 10 μM, 4 hours
[7] = 2 hours following radiation, 20% O2, Example 9 Study 2, read-out: Spheroid Cell line: FaDU Immunohistochemical endpoint pDNA-PK inhibition EC50
[8] = 2 h, spheroids, 20% O2, Example 8, read-out: Cell line: FaDU Immunohistochemical endpoint pDNA-PK inhibition EC50
[9] = HCT-116, 2 h, spheroids, Example 8, read-out: Cell line: HCT116 Immunohistochemical endpoint pDNA-PK inhibition EC50
[10] = HCT-116, 2 hours following radiation, Example 9 Study 2, read-out: Spheroid Cell line: HCT116 Immunohistochemical endpoint pDNA-PK inhibition EC50
[11] = HCT-116, Spheroid, Cell Line: HCT115 (so in the source), 2 hours following radiation, Example 7, read-out: EC50, Immunohistochemical endpoint, pDNA-PK inhibition
[12] = neocarzinostatin 1 μg/mL, Table 1
[13] = mouse liver microsomes 0.1 mg/mL, 0.1 uM compound
[14] = mouse liver microsomes, Example 11

| SMILES | EC50 [1, 7] | EC50 [1, 8] | IC50 (DNA-PK; Table 1) | EC50 [2, 9] | EC50 [2, 10] | EC50 [2, 11] | IC50 [3, 12] | also measured |
| --- | --- | --- | --- | --- | --- | --- | --- | --- |
| COc1ccc(NC(=O)N[C@H]2CC[C@@H](Oc3nc(N4CCOCC4)cc4ncccc34)CC2)cc1 [Compound 152, 1-(4-Methoxyphenyl)-3-((1s,4s)-4-((7-morpholino-1,6-naphthyridin-5-yl)oxy)cyclohexyl)urea] | 0.5 to 1 µM | 0.5 to 1 µM | 0.0005 to 0.001 µM | 1 to 10 µM | 1 to 10 µM | 1 to 10 µM | 0.1 to 1 µM | – |
| O=C(Nc1ccncc1)[C@H]1CC[C@@H](Oc2nc(N3CCOCC3)cc3ncccc23)CC1 [Compound 154e, (1S,4S)-4-((7-morpholino-1,6-naphthyridin-5-yl)oxy)-N-(pyridin-4-yl)cyclohexane-1-carboxamide] | 0.5 to 1 µM | 0.5 to 1 µM | 0.001 to 0.01 µM | 1 to 10 µM | 1 to 10 µM | 1 to 10 µM | 0.1 to 1 µM | microsomal CLint at 0.1 uM [4, 13]: > 116 µL/min/mg; Microsomal Stability Mouse % rem. 60 min ([4]; mouse liver microsomes): E (% remaining = 0-25%) |
| CN1CCN(CCOc2cnc(N[C@H]3CC[C@@H](Oc4nc(N5CCOCC5)cc5ncc(NS(C)(=O)=O)cc45)CC3)nc2)CC1 [LFA031, N-[5-[4-[[5-[2-(4-Methylpiperazin-1-yl)ethoxy]pyrimidin-2-yl]amino]cyclohexoxy]-7-morpholino-1,6-naphthyridin-3-yl]methanesulfonamide] | – | – | – | – | – | – | – | TGD-ER Range Score (FaDu tumour xenograft; 30 mpk BID + 10 Gy): B (1-2.5=B) |
| CC(c1cnc([N+](=O)[O-])n1C)N(c1cnc2cc(N3CCOCC3)nc(O[C@H]3CC[C@@H](Nc4ncc(OCCN5CCN(C)CC5)cn4)CC3)c2c1)S(C)(=O)=O (stereo partly drawn) [LFA033, N-[1-(3-Methyl-2-nitro-imidazol-4-yl)ethyl]-N-[5-[4-[[5-[2-(4-methylpiperazin-1-yl)ethoxy]pyrimidin-2-yl]amino]cyclohexoxy]-7-morpholino-1,6-naphthyridin-3-yl]methanesulfonamide] | – | – | – | – | – | – | – | TGD-ER Range Score (FaDu tumour xenograft; 50 mpk BID + 10 Gy): C (<1=C) |
| CN(C)C(=O)COc1cnc(N[C@H]2CC[C@@H](Oc3nc(N4CCOCC4)cc4ncc(OCc5cnc([N+](=O)[O-])n5C)cc34)CC2)nc1 [LFA114, N,N-Dimethyl-2-[2-[[4-[[3-[(3-methyl-2-nitro-imidazol-4-yl)methoxy]-7-morpholino-1,6-naphthyridin-5-yl]oxy]cyclohexyl]amino]pyrimidin-5-yl]oxy-acetamide] | – | – | – | – | – | – | – | EC50 ([5]; 5% O2, inner layers, read-out: Prodrug 5% O2 Inner layers EC50): 0.01 to 0.5 µM; EC50 ([5]; 5% O2, outer layers, read-out: Prodrug 5% O2 Outer layers EC50): 0.5 to 1 µM; EC50 ([5]; 20% O2, outer layers, read-out: Prodrug 20% O2 Outer layers EC50): 1 to 10 µM; IC50 (DNA-PK; Table 2): 0.01 to 0.15 µM; microsomal CLint at 0.1 uM ([6]; both sexes, pH 7.4): < 116 µL/min/mg; Microsomal Stability Human % rem. 60 min ([6]; 60 min): E (% remaining = 0-25%); microsomal CLint at 0.1 uM [4, 14]: > 116 µL/min/mg; Microsomal Stability Mouse % rem. 60 min [4, 14]: E (% remaining = 0-25%); IC50 ([3]; Table 2): 10 to 30 µM; Fraction of prodrug converted to active form, Hypoxic 0.2% O2 (FaDu cell line; 0.2% O2): A (A is 0.15 to 1); Fraction of prodrug converted to active form, Oxic 5% O2 (FaDu cell line; 5% O2): B (B is 0.05 to 0.15) |

Second part, led by results:

| EC50 [1, 7] | EC50 [1, 8] | IC50 (DNA-PK; Table 1) | EC50 [2, 9] | EC50 [2, 10] | EC50 [2, 11] | IC50 [3, 12] | SMILES | also measured |
| --- | --- | --- | --- | --- | --- | --- | --- | --- |
| 1 to 10 µM | 1 to 10 µM | < 0.0005 µM | 0.5 to 1 µM | 0.5 to 1 µM | 0.5 to 1 µM | 0.1 to 1 µM | CN(C)C(=O)COc1cnc(N[C@H]2CC[C@@H](Oc3nc(N4CCOCC4)cc4ncc(Br)cc34)CC2)nc1 [Compound 178, 2-((2-(((1s,4s)-4-((3-bromo-7-morpholino-1,6-naphthyridin-5-yl)oxy)cyclohexyl)amino)pyrimidin-5-yl)oxy)-N,N-dimethylacetamide] | – |
| 1 to 10 µM | 1 to 10 µM | < 0.0005 µM | 1 to 10 µM | 1 to 10 µM | 1 to 10 µM | 1 to 10 µM | O=C(O)c1cnc2cc(N3CCOCC3)nc(O[C@H]3CC[C@@H](Nc4ncccn4)CC3)c2c1 [Compound 183, 7-morpholino-5-(((1s,4s)-4-(pyrimidin-2-ylamino)cyclohexyl)oxy)-1,6-naphthyridine-3-carboxylic acid] | microsomal CLint at 0.1 uM [4, 13]: < 116 µL/min/mg; Microsomal Stability Mouse % rem. 60 min ([4]; mouse liver microsomes): H (% remaining = 75-100%) |
